Test results: patent US20190071416A1, “COMPOUNDS FOR TREATMENT OF CANCER AND EPIGENETICS” (Agency For Science, Technology and Research, priority 2015, published 2019)

Target: T1, SMYD3 (Homo sapiens, UniProt Q9H7B4)
T1 sequence (Q9H7B4 1-428): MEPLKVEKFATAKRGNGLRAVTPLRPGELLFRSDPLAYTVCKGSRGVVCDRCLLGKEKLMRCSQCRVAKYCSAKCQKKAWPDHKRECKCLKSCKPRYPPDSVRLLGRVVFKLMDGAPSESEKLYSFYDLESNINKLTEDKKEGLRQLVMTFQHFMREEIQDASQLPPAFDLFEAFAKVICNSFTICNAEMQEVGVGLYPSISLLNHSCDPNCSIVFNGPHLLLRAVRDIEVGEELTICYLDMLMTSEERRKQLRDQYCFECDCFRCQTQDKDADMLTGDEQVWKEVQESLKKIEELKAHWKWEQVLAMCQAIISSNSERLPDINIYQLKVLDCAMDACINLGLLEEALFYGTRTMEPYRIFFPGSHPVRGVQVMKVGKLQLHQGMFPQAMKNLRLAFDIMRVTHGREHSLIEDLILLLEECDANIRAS
Test: SMYD3 biochemical assay (MTase-Glo, MAP3K2 peptide substrate)
Details: Table 3; MTase assay, MAP3K2 peptide substrate; read-out: IC50
Summary of the method: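 Methylation of MAP3K2 peptide (10 µM final) with SAM (1.0 µM final) by SMYD3, 30 min at room temperature. SAH formed was enzymatically converted to ATP and detected as luminescence with MTase-Glo reagents; IC50 by non-linear regression.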

Structure (SMILES) | IC50
CCCOC(=O)N1CCN(C(=O)c2ccc3c(Cl)c(C)c(-c4cccc(CN)c4)nc3c2)CC1 [B038, Propyl 4-(2-(3-(aminomethyl)phenyl)-4-chloro-3-methylquinoline-7-carbonyl)piperazine-1-carboxylate] | 99 nM
CCCOC(=O)N1CCN(C(=O)c2ccc3c(Cl)cc(-c4cccc(-n5cnnc5)c4)nc3c2)C[C@H]1C [B096, Propyl (R)-4-(2-(3-(4H-1,2,4-triazol-4-yl)phenyl)-4-chloroquinoline-7-carbonyl)-2-methylpiperazine-1-carboxylate] | 310 nM
C[C@@H]1CN(C(=O)c2ccc3c(Cl)cc(-c4ccc(C(C)(C)O)cc4)nc3c2)CCN1C(=O)OCCF [B267, 2-Fluoroethyl (R)-4-(4-chloro-2-(4-(2-hydroxypropan-2-yl)phenyl)quinoline-7-carbonyl)-2-methylpiperazine-1-carboxylate] | 150 nM
CCCOC(=O)N1CCN(C(=O)c2ccc3c(Cl)c(CC)c(-c4ccccc4)nc3c2)CC1 [B004, Propyl 4-(4-chloro-3-ethyl-2-phenylquinoline-7-carbonyl)piperazine-1-carboxylate] | 1400 nM
CCCOC(=O)N1CCN(C(=O)c2ccc3c(Cl)cc(-c4ccc(OC)c(F)c4)nc3c2)CC1 [B165, Propyl 4-(4-chloro-2-(3-fluoro-4-methoxyphenyl)quinoline-7-carbonyl)piperazine-1-carboxylate] | 150 nM
CCCOC(=O)N1CCN(C(=O)c2ccc3c(Cl)cc(-c4cccc(N)c4)nc3c2)CC1 [B077, Propyl 4-(2-(3-aminophenyl)-4-chloroquinoline-7-carbonyl)piperazine-1-carboxylate] | 120 nM
O=C(c1ccc2c(Cl)cc(-c3ccccc3)nc2c1)N1CCN(C(=O)c2cn(C3CC3)nn2)CC1 [D002, (4-Chloro-2-phenylquinolin-7-yl)(4-(1-cyclopropyl-1H-1,2,3-triazole-4-carbonyl)piperazin-1-yl)methanone] | 4 nM
Cc1cc(C(=O)N2C3CCCC2CN(C(=O)c2ccc4c(Cl)c5c(nc4c2)CCCC5)C3)n[nH]1 [A040, (9-Chloro-5,6,7,8-tetrahydroacridin-3-yl)(9-(5-methyl-1H-pyrazole-3-carbonyl)-3,9-diazabicyclo[3.3.1]nonan-3-yl)methanone] | 10900 nM
CCCOC(=O)N1CCN(C(=O)c2ccc3c(Cl)c(C)c(-c4cccc(C)c4)nc3c2)CC1 [B028, Propyl 4-(4-chloro-3-methyl-2-(m-tolyl)quinoline-7-carbonyl)piperazine-1-carboxylate] | 1100 nM
CCCOC(=O)N1CCN(C(=O)c2ccc3c(Cl)cc(-c4ccc(F)c(CN(C)C)c4)nc3c2)CC1 [B167] | 660 nM
NC1(c2ccc(-c3cc(Cl)c4ccc(C(=O)N5CCN(C(=O)c6cn(C7CC7)nn6)CC5)cc4n3)cc2)CC1 [D013, (2-(4-(1-Aminocyclopropyl)phenyl)-4-chloroquinolin-7-yl)(4-(1-cyclopropyl-1H-1,2,3-triazole-4-carbonyl)piperazin-1-yl)methanone] | 78 nM
CCCOC(=O)N1CCN(C(=O)c2ccc3c(Cl)c(C)c(-c4ccccc4C)nc3c2)CC1 [B027, Propyl 4-(4-chloro-3-methyl-2-(o-tolyl)quinoline-7-carbonyl)piperazine-1-carboxylate] | 1200 nM
CCCOC(=O)N1CCN(C(=O)c2ccc3c(Cl)cc(-c4ccc(C#N)c(C)c4)nc3c2)CC1 [B101, Propyl 4-(4-chloro-2-(4-cyano-3-methylphenyl)quinoline-7-carbonyl)piperazine-1-carboxylate] | 1800 nM
O=C(c1ccc2c(Cl)cc(-c3ccccc3)nc2c1)N1CCN(C(=O)c2cnn(C3CC3)c2)CC1 [D011, (4-Chloro-2-phenylquinolin-7-yl)(4-(1-cyclopropyl-1H-pyrazole-4-carbonyl)piperazin-1-yl)nethanone] | 200 nM
CCCOC(=O)N1CCN(C(=O)c2ccc3c(Cl)cc(-c4ccc(C(=O)NC)cc4)nc3c2)CC1 [B118, Propyl 4-(4-chloro-2-(4-(methylcarbamoyl)phenyl)quinoline-7-carbonyl)piperazine-1-carboxylate] | 250 nM
CCCOC(=O)N1CCN(C(=O)c2ccc3c(Cl)cc(-c4cccc5[nH]ncc45)nc3c2)CC1 [B141, Propyl 4-(4-chloro-2-(1H-indazol-4-yl)quinoline-7-carbonyl)piperazine-1-carboxylate] | 630 nM
CCCOC(=O)N1CCN(C(=O)c2ccc3c(Cl)cc(-c4ccc(-c5cn[nH]c5)cc4)nc3c2)CC1 [B136, Propyl 4-(2-(4-(1H-pyrazol-4-yl)phenyl)-4-chloroquinoline-7-carbonyl)piperazine-1-carboxylate] | 38 nM

More lines, now with the values ahead:

IC50 | Structure (SMILES)
260 nM | C#Cc1ccc(C2CCc3c(nc4cc(C(=O)N5CCN(C(=O)OCCC)[C@H](C)C5)ccc4c3Cl)C2)nc1 (stereo partly drawn) [A149, Propyl (2R)-4-(9-chloro-6-(5-ethynylpyridin-2-yl)-5,6,7,8-tetrahydroacridine-3-carbonyl)-2-methylpiperazine-1-carboxylate]
420 nM | CCCCOC(=O)N1CCN(C(=O)c2ccc3c(Cl)c4c(nc3c2)CCCC4)CC1 [A038, Butyl 4-(9-chloro-5,6,7,8-tetrahydroacridine-3-carbonyl)piperazine-1-carboxylate]
380 nM | CCCOC(=O)N1CCN(C(=O)c2ccc3c(Cl)c4c(nc3c2)CC(c2ncccc2C)CC4)C[C@@H]1C (stereo partly drawn) [A107, Propyl (2S)-4-(9-chloro-6-(3-methylpyridin-2-yl)-5,6,7,8-tetrahydroacridine-3-carbonyl)-2-methylpiperazine-1-carboxylate]
290 nM | CCCOC(=O)N1CC(C)N(C(=O)c2ccc3c(Cl)c4c(nc3c2)CCCC4)CC1C (stereo not shown) [A017, Propyl 4-(9-chloro-5,6,7,8-tetrahydroacridine-3-carbonyl)-2,5-dimethylpiperazine-1-carboxylate]
300 nM | CCCOC(=O)N1CCN(C(=O)c2ccc3c(Cl)c(C)c(-c4ccccc4)nc3c2)[C@H](C)C1 [B017, Propyl (R)-4-(4-chloro-3-methyl-2-phenylquinoline-7-carbonyl)-3-methylpiperazine-1-carboxylate]
340 nM | CCCOC(=O)N1CCN(C(=O)c2ccc3c(Cl)cc(-c4ccc(C#N)cc4)nc3c2)C[C@H]1C [B062, Propyl (R)-4-(4-chloro-2-(4-cyanophenyl)quinoline-7-carbonyl)-2-methylpiperazine-1-carboxylate]
47 nM | CCCOC(=O)N1CCN(C(=O)c2ccc3c(Cl)c4c(nc3c2)CC(CCN)CC4)[C@H](C)C1 (stereo partly drawn) [A111, Propyl (3R)-4-(6-(2-aminoethyl)-9-chloro-5,6,7,8-tetrahydroacridine-3-carbonyl)-3-methylpiperazine-1-carboxylate]
420 nM | C#CCC1CCc2c(nc3cc(C(=O)N4CCN(C(=O)OCCC)[C@H](C)C4)ccc3c2Cl)C1 (stereo partly drawn) [A142, Propyl (2R)-4-(9-chloro-6-(prop-2-yn-1-yl)-5,6,7,8-tetrahydroacridine-3-carbonyl)-2-methylpiperazine-1-carboxylate]
140 nM | CCCOC(=O)N1CCN(C(=O)c2ccc3c(Cl)c4c(nc3c2)CC(c2cnccn2)CC4)CC1 (stereo not shown) [A112, Propyl 4-(9-chloro-6-(pyrazin-2-yl)-5,6,7,8-tetrahydroacridine-3-carbonyl)piperazine-1-carboxylate]
260 nM | C#Cc1ccc(C2CCc3c(nc4cc(C(=O)N5CCN(C(=O)OCCC)C[C@@H]5C)ccc4c3Cl)C2)nc1 (stereo partly drawn) [A150, Propyl (3S)-4-(9-chloro-6-(5-ethynylpyridin-2-yl)-5,6,7,8-tetrahydroacridine-3-carbonyl)-3-methylpiperazine-1-carboxylate]
6400 nM | CCCNC(=O)N1CCN(C(=O)c2ccc3c(Cl)c4c(nc3c2)CCCC4)CC1 [A049, 4-(9-Chloro-5,6,7,8-tetrahydroacridine-3-carbonyl)-N-propylpiperazine-1-carboxamide]
140 nM | CCCOC(=O)N1CCN(C(=O)c2ccc3c(Cl)c4c(nc3c2)CC(c2ccnc(C)c2)CC4)C[C@@H]1C (stereo partly drawn) [A123, Propyl (2S)-4-(9-chloro-6-(2-methylpyridin-4-yl)-5,6,7,8-tetrahydroacridine-3-carbonyl)-2-methylpiperazine-1-carboxylate]
6700 nM | CCCOC(=O)N1CCN(C(=O)c2ccc3c(Cl)c4c(nc3c2)CCCC4)CC12CC2 [A036, Propyl 7-(9-chloro-5,6,7,8-tetrahydroacridine-3-carbonyl)-4,7-diazaspiro[2.5]octane-4-carboxylate]
150 nM | CCCOC(=O)N1CCN(C(=O)c2ccc3c(Cl)c4c(nc3c2)CCC(CCN)C4)[C@@H](C)C1 (stereo partly drawn) [A081, Propyl (3S)-4-(7-(2-aminoethyl)-9-chloro-5,6,7,8-tetrahydroacridine-3-carbonyl)-3-methylpiperazine-1-carboxylate]
46 nM | CCCOC(=O)N1CCN(C(=O)c2ccc3c(Cl)c4c(nc3c2)CC(c2cnn(C)c2)CC4)CC1 (stereo not shown) [A151, Propyl 4-(9-chloro-6-(1-methyl-1H-pyrazol-4-yl)-5,6,7,8-tetrahydroacridine-3-carbonyl)piperazine-1-carboxylate]
840 nM | CC(C)COC(=O)N1CCN(C(=O)c2ccc3c(Cl)c4c(nc3c2)CCCC4)CC1 [A021, Isobutyl 4-(9-chloro-5,6,7,8-tetrahydroacridine-3-carbonyl)piperazine-1-carboxylate]
440 nM | Cc1cc(C(=O)N2CCN(C(=O)c3ccc4c(Cl)c5c(nc4c3)CCCC5)[C@@H](C)C2)no1 [A083, (S)-(9-Chloro-5,6,7,8-tetrahydroacridin-3-yl)(2-methyl-4-(5-methylisoxazole-3-carbonyl)piperazin-1-yl)methanone]
